Measured values taken from US8604053B2, “TRPV1 antagonists” (AbbVie Inc., priority 2008, dated 2013).

Tests used:
[1] = target: T1, human TRPV1 receptor (hTRPV1) (Homo sapiens, UniProt Q8NER1); experiment: Capsaicin activation assay (Ca2+ influx, FLIPR); type: cell-based; conditions: hTRPV1 in 1321N1 cells, 0.05 μM capsaicin
T1 construct: expressed in transfected cells
Description: Dulbecco's modified Eagle medium (D-MEM) (with 4.5 mg/mL glucose) and fetal bovine serum were obtained from Hyclone Laboratories, Inc. (Logan, Utah). Dulbecco's phosphate-buffered saline (D-PBS) (with 1 mg/mL glucose and 3.6 mg/l Na pyruvate, without phenol red), L-glutamine, hygromycin B, and Lipofectamine® were obtained from Life Technologies (Grand Island, N.Y.). G418 sulfate was obtained from Calbiochem-Novabiochem Corp. (San Diego, Calif.). Capsaicin (8-methyl-N-vanillyl-6-nonenamide) was obtained from Sigma-Aldrich, Co. (St. Louis, Mo.). Fluo-4 AM (N-[4-[6-[(acetyloxy)methoxy]-2,7-difluoro-3-oxo-3H-xanthen-9-yl]-2-[2-[2-[bis[2-[(acetyloxy)methoxy]-2-oxyethyl]amino]-5-methyl-phenoxy[ethoxy]phenyl]-N-[2-[(acetyloxy)methoxy]-2-oxyethyl]-glycine, (acetyloxy)methyl ester) was purchased from Molecular Probes (Eugene, Oreg.).
The cDNAs for the human TRPV1 receptor (hTRPV1) were isolated by reverse transcriptase-polymerase chain reaction (RT-PCR) from human small intestine poly A+ RNA supplied by Clontech (Palo Alto, Calif.) using primers designed surrounding the initiation and termination codons identical to the published sequences (Hayes et al. Pain 2000, 88, 205-215). The resulting cDNA PCR products were subcloned into pClneo mammalian expression vector (Promega) and fully sequenced using fluorescent dye-terminator reagents (Prism, Perkin-Elmer Applied Biosystems Division) and a Perkin-Elmer Applied Biosystems Model 373 DNA sequencer or Model 310 genetic analyzer. Expression plasmids encoding the hTRPV1 cDNA were transfected individually into 1321N1 human astrocytoma cells using Lipofectamine®. Forty-eight hours after transfection, the neomycin-resistant cells were selected with growth medium containing 800 μg/mL Geneticin (Gibco BRL). Surviving individual colonies were isolated and screened for TRPV1 receptor activity. Cells expressing recombinant homomeric TRPV1 receptors were maintained at 37° C. in D-MEM containing 4 mM L-glutamine, 300 μg/mL G418 (Cal-biochem) and 10% fetal bovine serum under a humidified 5% CO2 atmosphere.
The functional activity of compounds at the TRPV1 receptor was determined with a Ca^2+ influx assay and measurement of intracellular Ca^2+ levels ([Ca^2+]i). All compounds were tested over an 11-point half-log concentration range. Compound solutions were prepared in D-PBS (4× final concentration), and diluted serially across 96-well v-bottom tissue culture plates using a Biomek 2000 robotic automation workstation (Beckman-Coulter, Inc., Fullerton, Calif.). A 0.2 μM solution of the TRPV1 agonist capsaicin was also prepared in D-PBS. The fluorescent Ca^2+ chelating dye Fluo-4 AM was used as an indicator of the relative levels of [Ca^2+]i in a 96-well format using a Fluorescence Imaging Plate Reader (FLIPR)(Molecular Devices, Sunnyvale, Calif.). Cells were grown to confluency in 96-well black-walled tissue culture plates. Then, prior to the assay, the cells were loaded with 100 μL per well of Fluo-4 AM (2 μM, in D-PBS) for 1-2 hours at 23° C. Washing of the cells was performed to remove extracellular Fluo-4 AM (2×1 mL D-PBS per well), and afterward, the cells were placed in the reading chamber of the FLIPR instrument. 50 μL of the compound solutions were added to the cells at the 10 second time mark of the experimental run. Then, after a 3-minute time delay, 50 μL of the capsaicin solution was added at the, 190 second time mark (0.05 μM final concentration)(final volume=200 μL) to challenge the TRPV1 receptor. Time length of the experimental run was 240 seconds. Fluorescence readings were made at 1 to 5 second intervals over the course of the experimental run. The peak increase in relative fluorescence units (minus baseline) was calculated from the 190 second time mark to the end of the experimental run, and expressed as a percentage of the 0.05 μM capsaicin (control) response. […]

[2] = Rat telemetry protocol, core body temperature; type: in vivo; conditions: core body temperature of rats one hour post dosing, 100 μmol/kg p.o., relative to vehicle
Description: Male, Sprague Dawley rats, 225-250 grams were anesthetized with Sevoflurane (Abbott Laboratories). Rats were placed on a heating pad and covered with a sterile surgical drape. A ventral midline abdominal incision was made and sterile cotton tip applicators were used to gently move internal tissue and expose the abdominal aorta for implantation of the telemetry catheter (Data Sciences International; TL11M2-050-PXT). Blood flow was temporarily stopped to the lower extremities (5-7 min) with Diffenbach clamps to allow the insertion of the telemetry catheter into the abdominal aorta. Once inserted, a sterile cellulose patch was placed over the catheter/aorta and secured using a small amount of tissue adhesive (Vetbond, 3M). Once catheter placement was complete, the clamps were removed and blood flow was restored to the lower extremities. Thetransmitter was placed in the intraperitoneal cavity. The transmitter suture rib was sewn into the abdominal sutures to secure it in place. The skin was closed using sterile wound clips and the animal removed from Sevoflurane. Buprenex ([…] s.c.; Phoenix) was administered for post-operative analgesia. Animals were maintained on a heating pad until ambulatory, and then individually housed with food and water ad lib. Surgical staples were removed after 7-10 days post-implantation. Rats were allowed a 2-week post-surgical recovery period before treatment with test compound. Oral dosing (p.o.) was at time zero, with rats receiving a single dose of vehicle (10% EtOH, 20% Tween-80, 70% PEG-400) or a 100 μmol/kg dose of compound dissolved in vehicle. Temperature measurements were recorded every 15 minutes for the duration of the study (24 hours).
Representative compounds described herein have the novel property of having limited transient temperature effect on core body temperature of a mammal (e.g. rats). For example, compounds tested alter core body temperature of rats by less than about +0.5° C. at about 1 hour after administration of a single dose (100 μmol/kg) of the test compounds orally, for example, in the range from about −2.5° C. to less than about +0.5° C., from about −0.5° C. to less than about +0.5° C.; or from about −0.3° C. to about +0.3° C.
The term “core body temperature” as used herein, means the temperature measured in the intraperitoneal cavity.

CYP2C9 = target: T2, CYP2C9 (Homo sapiens, UniProt P11712); experiment: CYP2C9 inhibition assay; type: in vitro ADME; conditions: pH 7.4, probe Luciferin-H (100 μM final), human liver microsomes, substrate Luciferin-H, read-out: CYP2C9 % inh @ 2.2 μM
T2 construct: human liver microsomes (BD Gentest); tissue BD Gentest; host or cells: human liver microsomes
Description: Stock solutions of test compounds were assayed in 96-well format for their ability to inhibit CYP2C9, CYP2D6, or CYP3A4 mediated metabolism of test substrates. Luciferin-H was used as the substrate for CYP2C9; 3-[2-(N,N-diethyl-N-methylammonium)ethyl]-7-methoxy-4-methylcoumarin (AMMC) was used as the substrate for CYP2D6; 7-benzyloxyquiniline (BZQ) was used as the substrate for CYP3A4. For each subtype, positive controls (sulphaphenazole in the case of CYP2C9; quinidine in the case of CYP2D6, ketoconazole in the case of CYP3A4) were used to validate assay results run in duplicate.
Pre-Incubation Mixture Preparation for CYP2C9 and CYP2D6: A pre-incubation mixture was prepared by combining 100 mM phosphate buffer (9.12 mL; pH 7.4), human liver microsomes (BD Gentest, 240 itt; final concentration: 0.4 mg/mL), and 10 mM nicotinamide adenine dinucleotide phosphate in 65.4 mM MgCl2 hexahydrate (120 μL; final concentration: 125 μM and 818 μM, respectively). To this was mixture is added a ‘regeneration’ mixture (120 μL) of 333 mM glucose-6-phosphate and 40 U/mL glucose-6-phosphate dehydrogenase in 5 mM sodium citrate (final concentration: 4 mM, 0.5 U/mL, and 0.06 mM, respectively).
Substrate Mixture Preparation for CYP2C9: To a solution of 25 mM phosphate buffer, (2.16 mL, pH 7.4) was added 5 mM Luciferin-H (Promega P450 Glo Assay V8792, 240 μL; final solution concentration 0.5 mM, final assay concentration 100 μM).
CYP2C9 Inhibiton Assay: To each well in the assay plate containing varying concentrations of test compound or control compound in DMSO (10 μL) Pre-Incubation Mixture (40 itt) was added to the wells and the assay plate was pre-incubated for 10 minutes at 37° C., with shaking or rocking. CYP2C9 Substrate Mixture (10 μL) was added to all wells and the assay plate was incubated for an additional 25 minutes at 37° C., with shaking or rocking. Final DMSO concentration was 1%. Luciferin-H detection reagent (Promega kit V8792, 50 μL) was added to all wells. The plate was then vortexed at ambient temperature for between 20 minutes and 2 hours, and the luminescence of each well was then read and recorded.

T1 sequence (Q8NER1 whole entry): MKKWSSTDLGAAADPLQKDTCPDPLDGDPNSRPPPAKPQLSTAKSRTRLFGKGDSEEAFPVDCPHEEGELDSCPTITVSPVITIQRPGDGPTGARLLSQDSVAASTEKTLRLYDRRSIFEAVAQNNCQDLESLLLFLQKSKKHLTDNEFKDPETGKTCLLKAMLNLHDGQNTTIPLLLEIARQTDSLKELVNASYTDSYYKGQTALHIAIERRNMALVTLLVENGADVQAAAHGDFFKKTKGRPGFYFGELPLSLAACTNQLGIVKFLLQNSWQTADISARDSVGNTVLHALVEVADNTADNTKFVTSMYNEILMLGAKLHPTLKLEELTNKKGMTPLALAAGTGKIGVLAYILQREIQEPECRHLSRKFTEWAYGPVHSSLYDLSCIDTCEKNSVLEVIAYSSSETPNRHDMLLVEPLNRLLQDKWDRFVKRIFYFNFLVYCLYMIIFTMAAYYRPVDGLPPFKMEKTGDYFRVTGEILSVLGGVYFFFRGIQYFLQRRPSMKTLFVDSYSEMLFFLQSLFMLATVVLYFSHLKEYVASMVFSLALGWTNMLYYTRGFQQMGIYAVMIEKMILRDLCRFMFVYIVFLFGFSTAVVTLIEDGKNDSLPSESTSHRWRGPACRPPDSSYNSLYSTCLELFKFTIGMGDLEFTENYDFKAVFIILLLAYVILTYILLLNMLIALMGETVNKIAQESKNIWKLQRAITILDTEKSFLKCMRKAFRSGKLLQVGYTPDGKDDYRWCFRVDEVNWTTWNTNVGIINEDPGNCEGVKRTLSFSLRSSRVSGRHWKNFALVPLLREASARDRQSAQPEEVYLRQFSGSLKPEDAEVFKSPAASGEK
T2 sequence (P11712 whole entry): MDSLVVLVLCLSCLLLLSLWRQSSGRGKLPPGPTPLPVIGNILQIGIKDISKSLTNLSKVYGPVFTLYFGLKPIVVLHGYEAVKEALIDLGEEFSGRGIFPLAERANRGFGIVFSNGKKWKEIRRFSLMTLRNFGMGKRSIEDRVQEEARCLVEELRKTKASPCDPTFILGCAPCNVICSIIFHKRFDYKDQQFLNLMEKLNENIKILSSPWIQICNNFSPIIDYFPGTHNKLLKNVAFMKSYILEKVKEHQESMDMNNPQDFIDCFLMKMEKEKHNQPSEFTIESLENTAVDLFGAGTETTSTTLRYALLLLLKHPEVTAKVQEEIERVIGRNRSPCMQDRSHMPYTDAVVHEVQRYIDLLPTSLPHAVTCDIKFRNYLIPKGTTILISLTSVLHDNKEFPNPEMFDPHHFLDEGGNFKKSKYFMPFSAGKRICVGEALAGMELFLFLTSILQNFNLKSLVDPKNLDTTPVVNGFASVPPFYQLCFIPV

SMILES	IC50 [1]	Δ Temp (° C.) [2]	inhibition at 25 min, 2.2 µM (CYP2C9)
O=C(Nc1cccc2c1C[C@H](O)CC2)N[C@@H]1CC2(CCC2)Oc2ccc(F)cc21 [Example 6, N-[(4R)-6-fluoro-3,3′,4,4′-tetrahydro-2′H-spiro[chromene-2,1′-cyclobutan]-4-yl]-N′-[(7R)-7-hydroxy-5,6,7,8-tetrahydronaphthalen-1-yl]urea]	28 nM	0.2 °C	
Cn1ncc2c(NC(=O)N[C@@H]3CC4(CCC4)Oc4ccc(F)cc43)cccc21 [Example 7, N-[(4R)-6-fluoro-3,3′,4,4′-tetrahydro-2′H-spiro[chromene-2,1′-cyclobutan]-4-yl]-N′-(1-methyl-1H-indazol-4-yl)urea]	78 nM	0.1 °C	
O=C(Nc1cccc2[nH]ncc12)N[C@@H]1CC2(CCC2)Oc2ccc(F)cc21 [Example 8, N-[(4R)-6-fluoro-3,3′,4,4′-tetrahydro-2′H-spiro[chromene-2,1′-cyclobutan]-4-yl]-N′-1H-indazol-4-ylurea]	76 nM	0.1 °C	
CC1(C)C[C@@H](NC(=O)Nc2cccc3[nH]ncc23)c2ccc(C(F)(F)F)cc2O1 [Example 41, N-[(4R)-2,2-dimethyl-7-(trifluoromethyl)-3,4-dihydro-2H-chromen-4-yl]-N′-1H-indazol-4-ylurea]	16 nM	−2.5 °C	
CCC1(CC)C[C@@H](NC(=O)Nc2cccc3c2cnn3C)c2cccc(F)c2O1 [Example 50, N-[(4R)-2,2-diethyl-8-fluoro-3,4-dihydro-2H-chromen-4-yl]-N′-(1-methyl-1H-indazol-4-yl)urea]	35 nM	0.1 °C	
CCC1(CC)C[C@@H](NC(=O)Nc2cccc3[nH]ncc23)c2cc(F)ccc2O1 [Example 58, N-[(4R)-2,2-diethyl-6-fluoro-3,4-dihydro-2H-chromen-4-yl]-N′-1H-indazol-4-ylurea]	19 nM	0.3 °C	
CCCC1(CCC)C[C@@H](NC(=O)Nc2cccc3c2cnn3C)c2cccc(F)c2O1 [Example 67, N-[(4R)-8-fluoro-2,2-dipropyl-3,4-dihydro-2H-chromen-4-yl]-N′-(1-methyl-1H-indazol-4-yl)urea]	18 nM	−0.2 °C	
O=C(Nc1cccc2[nH]ncc12)N[C@@H]1CCOc2c(OC(F)(F)F)cccc21 [Example 70, N-1H-indazol-4-yl-N′-[(4R)-8-(trifluoromethoxy)-3,4-dihydro-2H-chromen-4-yl]urea]	5 nM	0.3 °C	
CCC1(CC)C[C@@H](NC(=O)Nc2cccc3c(C)nccc23)c2cc(F)ccc2O1 [Example 86, N-[(4R)-2,2-diethyl-6-fluoro-3,4-dihydro-2H-chromen-4-yl]-N′-(1-methylisoquinolin-5-yl)urea]	10 nM	−1.7 °C	
Cn1ncc2c(NC(=O)N[C@@H]3CC(CF)(CF)Oc4c(OC(F)(F)F)cccc43)cccc21 [Example 88, N-[(4R)-2,2-bis(fluoromethyl)-8-(trifluoromethoxy)-3,4-dihydro-2H-chromen-4-yl]-N′-(1-methyl-1H-indazol-4-yl)urea]	9 nM	−0.3 °C	
CC1(C)C[C@@H](NC(=O)Nc2cccc3cnc(N)cc23)c2ccc(F)cc2O1 [Example 106, N-(3-aminoisoquinolin-5-yl)-N′-[(4R)-7-fluoro-2,2-dimethyl-3,4-dihydro-2H-chromen-4-yl]urea]	21 nM	0.3 °C	13%
